Assay results reported in patent US20230365572A1, “HYDROXYLBENZYL AZABICYCLO[2.2.1]HEPTAN-1-ANE DRIVATIVES AND MEDICAL USES THEREOF” (ATROGI AB, priority 2020, published 2023).
Counter-ions that a name gives are not always drawn. Like-named read-outs stand apart in the source and are kept apart here.

How the values were obtained:
Assay type in all cases: cell-based
L6-myotubes [1] = assay: Glucose uptake in differentiated L6-myotubes (3H-2-deoxy-glucose); conditions: read-out: Biological example 1: glucose uptake, activity compared to that of isoproterenol
Description: L6-myoblasts were grown in Dulbecco's Modified Eagle's Medium (DMEM) containing 4.5 g/l glucose supplemented with 10% fetal bovine serum, 2 mM L-Glutamine, 50 U/ml penicillin, 50 1.1g/ml streptomycin and 10 mM HEPES. Cells were plated at 1×10^5 cells per ml in 24-well plates. After reaching 90% confluence the cells were grown in medium containing 2% FBS for 7 days where upon cells differentiated into myotubes. Differentiated L6-myotubes were serum-starved over night in medium containing 0.5% fatty-acid free BSA and stimulated with agonist, final concentration 1×10^−5. After 1 h 40 min cells were washed with warm, glucose free medium or PBS and another portion of agonist was added to glucose free medium. After 20 min the cells were exposed to 50 nM ^3H-2-deoxy-glucose for another 10 min before washed in ice cold glucose free medium or PBS and lysed in 0.2 M NaOH for 1 h in 60° C.

[2] = tested on: Intracellular cAMP levels; assay: Measurement of intracellular cAMP levels in differentiated L6 cells (alpha screen cAMP kit); conditions: Rattus norvegicus, L6, 0.25 h, read-out: Biological example 2: intracellular cAMP levels, activity compared to that of isoproterenol
Description: L6-myoblasts were grown in Dulbecco's Modified Eagle's Medium (DMEM) containing 4.5 g/l glucose supplemented with 10% fetal bovine serum, 2 mM L-Glutamine, 50 U/ml penicillin, 50 1.1g/ml streptomycin and 10 mM HEPES. Cells were plated at 1×10^5 cells per ml in 24-well plates. After reaching 90% confluence the cells were grown in medium containing 2% FBS for 7 days where upon cells differentiated into myotubes. Differentiated cells were serum-starved over night and stimulated with agonist, final concentration 1×10^−5 M, for 15 min in stimulation buffer (HBSS supplemented with 1% BSA, 5 mM HEPES and 1 mM IBMX, pH 7,4) The medium was then aspirated and to end the reaction 100 μL of 95% EtOH was added to each well of a 24-well plate and cells were kept in […] over night. The EtOH was let to evaporate and 5001 μof lysis buffer (1% BSA, 5 mM HEPES and 0.3% Tween-20, pH 7,4) was added to each well before put in −80° C. for 30 min and then kept in −20° C. Intracellular cAMP levels were detected using an alpha screen cAMP kit (6760635D from Perkin Elmer). The activity for each compound is compared to that of isoproterenol.

L6-myotubes [3] = assay: Glucose uptake in L6-myotubes in the presence of the β2-antagonist ICI-118,551; conditions: differentiated L6-myotubes, ICI-118,551 1×10^−5 M, compound 1×10^−5 M
Description: L6-myoblasts were grown in Dulbecco's Modified Eagle's Medium (DMEM) containing 4.5 g/l glucose supplemented with 10% fetal bovine serum, 2 mM L-Glutamine, 50 U/ml penicillin, 50 1.1g/ml streptomycin and 10 mM HEPES. Cells were plated at 1×10^5 cells per ml in 24-well plates. After reaching 90% confluence the cells were grown in medium containing 2% FBS for 7 days where upon cells differentiated into myotubes. Differentiated L6-myotubes were serum-starved overnight in medium containing 0.5% fatty-acid free BSA and were incubated with the β2-adrenergic receptor antagonist ICI-118,551 at a final concentration of 1×10^−5 M for 30 min. The cells were stimulated with a compound of the invention, at a final concentration of 1×10^−5 M. After 1 h 40 min the cells were washed twice with warm, glucose free medium or PBS and additional portions of the compound of the invention and the antagonist were added. After 20 min the cells were exposed to 50 nM ^3H-2-deoxyglucose for 10 min before washed with ice cold glucose free medium or PBS three times and lysed with 0.2 M NaOH, 400 μL/well, for 1 h at 60° C. The cell lysate was mixed with 4 mL scintillation buffer (Emulsifier Safe, Perkin Elmer) and the radioactivity was detected in a β-counter (Tri-Carb 4810TR, Perkin Elmer). The activity for each compound is compared to that of isoproterenol.

[4] = differentiated L6-myotubes, agonist final concentration 1×10^−5, 3H-2-deoxy-glucose uptake
[5] = differentiated cells, agonist final concentration 1×10^−5 M, 15 min

CC12CCC([C@H](O)c3cccc(F)c3)(CC1)N2 [Example 1, (R)-(3-Fluorophenyl)(4-methyl-7-azabicyclo[2.2.1]heptan-1-yl)methanol hydrochloride] was tested, and the Emax at 10 µM (L6-myotubes [1]; [4]) was greater than 75%, the Emax at 10 µM [2, 5] was less than 25% and the “Biological example 3: glucose uptake in the presence of the β2-antagonist ICI-118,551, activity compared to that of isoproterenol” value (L6-myotubes [3]) was “− (if it less than 25% it is denoted with)”.

With CC12CCC([C@@H](O)c3cccc(F)c3)(CC1)N2 [Example 2, (S)-(3-Fluorophenyl)(4-methyl-7-azabicyclo[2.2.1]heptan-1-yl)methanol hydrochloride] the Emax at 10 µM (L6-myotubes [1]; [4]) was greater than 75%, the Emax at 10 µM [2, 5] was less than 25% and the “Biological example 3: glucose uptake in the presence of the β2-antagonist ICI-118,551, activity compared to that of isoproterenol” value (L6-myotubes [3]) was “− (if it less than 25% it is denoted with)”.

In the case of CC12CCC([C@H](O)c3ccccc3F)(CC1)N2 [Example 3, (R)-(2-Fluorophenyl)(4-methyl-7-azabicyclo[2.2.1]heptan-1-yl)methanol hydrochloride], the Emax at 10 µM (L6-myotubes [1]; [4]) is reported as 50 to 75% and the Emax at 10 µM [2, 5] is reported as less than 25%.

CC12CCC([C@@H](O)c3ccccc3F)(CC1)N2 [Example 4, (S)-(2-Fluorophenyl)(4-methyl-7-azabicyclo[2.2.1]heptan-1-yl)methanol hydrochloride] was tested, and the Emax at 10 µM (L6-myotubes [1]; [4]) was 25 to 50% and the Emax at 10 µM [2, 5] was less than 25%.

Work on CC12CCC([C@H](O)c3cccc(Cl)c3)(CC1)N2 [Example 5, (R)-(3-Chlorophenyl)(4-methyl-7-azabicyclo[2.2.1]heptan-1-yl)methanol hydrochloride] yielded an Emax at 10 µM (L6-myotubes [1]; [4]) greater than 75% and an Emax at 10 µM [2, 5] of less than 25%.

Molecule CC12CCC([C@@H](O)c3cccc(Cl)c3)(CC1)N2 [Example 6, (S)-(3-Chlorophenyl)(4-methyl-7-azabicyclo[2.2.1]heptan-1-yl)methanol hydrochloride] has an Emax at 10 µM (L6-myotubes [1]; [4]) of 25 to 50% and an Emax at 10 µM [2, 5] of less than 25%.

CC12CCC([C@H](O)c3ccccc3Cl)(CC1)N2 [Example 7, (R)-(2-Chlorophenyl)(4-methyl-7-azabicyclo[2.2.1]heptan-1-yl)methanol hydrochloride] showed an Emax at 10 µM (L6-myotubes [1]; [4]) greater than 75% and an Emax at 10 µM [2, 5] of less than 25%.

CC12CCC([C@@H](O)c3ccccc3Cl)(CC1)N2 [Example 8, (5)-(2-Chlorophenyl)(4-methyl-7-azabicyclo[2.2.1]heptan-1-yl)methanol hydrochloride] was tested, and the Emax at 10 µM (L6-myotubes [1]; [4]) was 25 to 50% and the Emax at 10 µM [2, 5] was less than 25%.

With CC12CCC([C@H](O)c3cncc(F)c3)(CC1)N2 [Example 9, (R)-(3-fluoropyridin-4-yl)(4-methyl-7-azabicydo[2.2.1]heptan-1-yl)-methanol] the Emax at 10 µM (L6-myotubes [1]; [4]) was greater than 75% and the Emax at 10 µM [2, 5] was less than 25%.

CC12CCC([C@@H](O)c3cncc(F)c3)(CC1)N2 [Example 10, (S)-(3-fluoropyridin-4-yl)(4-methyl-7-azabicydo[2.2.1]heptan-1-yl)-methanol] was tested, and the Emax at 10 µM (L6-myotubes [1]; [4]) was 50 to 75% and the Emax at 10 µM [2, 5] was less than 25%.

For CC12CCC([C@H](O)c3ccncc3F)(CC1)N2 [Example 11, (R)-(3-Fluoropyridin-4-yl)(4-methyl-7-azabicyclo[2.2.1]heptan-1-yl)-methanol], the Emax at 10 µM (L6-myotubes [1]; [4]) was less than 25% and the Emax at 10 µM [2, 5] was less than 25%.

Work on CC12CCC([C@@H](O)c3ccncc3F)(CC1)N2 [Example 12, (S)-(3-Fluoropyridin-4-yl)(4-methyl-7-azabicydo[2.2.1]heptan-1-yl)-methanol] yielded an Emax at 10 µM (L6-myotubes [1]; [4]) of less than 25% and an Emax at 10 µM [2, 5] of less than 25%.

In the case of CCCC12CCC([C@H](O)c3cccc(F)c3)(CC1)N2 [Example 13, (R)-(3-Fluorophenyl)(4-propyl-7-azabicyclo[2.2.1]heptan-1-yl)methanol hydrochloride], the Emax at 10 µM (L6-myotubes [1]; [4]) is reported as 50 to 75% and the Emax at 10 µM [2, 5] is reported as 25 to 50%.

With CCCC12CCC([C@@H](O)c3cccc(F)c3)(CC1)N2 [Example 14, (S)-(3-Fluorophenyl)(4-propyl-7-azabicyclo[2.2.1]heptan-1-yl)methanol hydrochloride] the Emax at 10 µM (L6-myotubes [1]; [4]) was less than 25% and the Emax at 10 µM [2, 5] was less than 25%.

Work on COCC12CCC([C@@H](O)c3cccc(F)c3)(CC1)N2 [Example 15, (S)-(3-Fluorophenyl)(4-(methoxymethyl)-7-azabicyclo[2.2.1]heptan-1-yl)methanol hydrochloride] yielded an Emax at 10 µM (L6-myotubes [1]) of 50 to 75% and an Emax at 10 µM [2] of less than 25%.

COCC12CCC([C@H](O)c3cccc(F)c3)(CC1)N2 [Example 16, (R)-(3-Fluorophenyl)(4-(methoxymethyl)-7-azabicyclo[2.2.1]heptan-1-yl)methanol hydrochloride] was tested, and the Emax at 10 µM (L6-myotubes [1]) was greater than 75%, the Emax at 10 µM [2] was less than 25% and the “Biological example 3: glucose uptake in the presence of the β2-antagonist ICI-118,551, activity compared to that of isoproterenol” value (L6-myotubes [3]) was “− (if it less than 25% it is denoted with)”.

For O[C@@H](c1cccc(F)c1)C12CCC(COc3ccc(Cl)cc3)(CC1)N2 [Example 17, (S)-(4-((4-Chlorophenoxy)methyl)-7-azabicyclo[2.2.1]heptan-1-yl)(3-fluorophenyl)methanol], the Emax at 10 µM (L6-myotubes [1]; [4]) was 50 to 75% and the Emax at 10 µM [2, 5] was less than 25%.

O[C@H](c1cccc(F)c1)C12CCC(COc3ccc(Cl)cc3)(CC1)N2 [Example 18, (R)-(4-((4-Chlorophenoxy)methyl)-7-azabicyclo[2.2.1]heptan-1-yl) (3-fluorophenyl)methanol] gave an Emax at 10 µM (L6-myotubes [1]; [4]) greater than 75% and an Emax at 10 µM [2, 5] of less than 25%.
